Holding throughout (assay): relative viability (nuclei count vs DMSO), 5 days (fraction); higher = more cells survive
Compound in assay [1]: CN1C=C(C2=CC=CC=C21)/C=C\3/C4=C(C=CC=N4)NC3=O + CC(C)C[C@H](NC(=O)[C@H](Cc1ccccc1)NC(=O)c1cnccn1)B(O)O [Bortezomib] (partner 0.002 µM)
A digest of the protocol: (§1)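 Lung cancer cell lines in 1536-well plates got either a single drug or a fixed anchor-drug dose together with five library-drug doses (not always all listed) in √10 steps, by pin tool, on the day after seeding. Nuclei were counted after 5 days, and relative viability is the treated-to-vehicle ratio of nuclei counts. Values are medians of duplicate plates.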

Compound in the assay “Trametinib + Bortezomib”: CC(=O)Nc1cccc(-n2c(=O)n(C3CC3)c(=O)c3c(Nc4ccc(I)cc4F)n(C)c(=O)c(C)c32)c1 [Trametinib] + CC(C)C[C@H](NC(=O)[C@H](Cc1ccccc1)NC(=O)c1cnccn1)B(O)O [Bortezomib] (partner 0.002 µM)
A digest of the protocol: as §1

Compound in assay [2]: CN1C=C(C2=CC=CC=C21)/C=C\3/C4=C(C=CC=N4)NC3=O + Nc1ncn([C@H]2C[C@H](O)[C@@H](CO)O2)c(=O)n1 [Decitabine] (partner 2 µM)
A digest of the protocol:
as §1

Compound in the assay “Trametinib + Tozasertib”: CC(=O)Nc1cccc(-n2c(=O)n(C3CC3)c(=O)c3c(Nc4ccc(I)cc4F)n(C)c(=O)c(C)c32)c1 [Trametinib] + Cc1cc(Nc2cc(N3CCN(C)CC3)nc(Sc3ccc(NC(=O)C4CC4)cc3)n2)n[nH]1 [Tozasertib] (partner 0.1 µM)
Summed up:
as §1

As to UMC-11, the relative viability was determined as 0.668 in assay [1] (first compound 0.02 µM); 0.263 in assay [1] (first compound 0.06325 µM); 0.572 in assay [1] (first compound 0.2 µM); 0.761 in assay [1] (first compound 0.6325 µM); 0.926 in assay [1] (first compound 2 µM); 0.777 with Trametinib + Bortezomib (first compound 0.0025 µM). The relative viability with Trametinib + Bortezomib (first compound 0.007906 µM) came to 0.836; with Trametinib + Bortezomib (first compound 0.025 µM) it was 0.254; in the assay with Trametinib + Bortezomib (first compound 0.07906 µM) it was 0.837; with Trametinib + Bortezomib (first compound 0.25 µM), 0.663; in assay [2] (first compound 0.02 µM) it was 0.604; in assay [2] (first compound 0.06325 µM), 0.631. Further, the relative viability turned out to be 0.497 in assay [2] (first compound 0.2 µM); 0.395 in assay [2] (first compound 0.6325 µM); 0.646 in assay [2] (first compound 2 µM); 0.199 with Trametinib + Tozasertib (first compound 0.0025 µM); 0.195 with Trametinib + Tozasertib (first compound 0.007906 µM); 0.19 with Trametinib + Tozasertib (first compound 0.07906 µM). For the same cell line, the relative viability in the assay with Trametinib + Tozasertib (first compound 0.25 µM) is 0.211.

The values are drawn from the supplement of paper PMC10307832.
